According to ChEMBL document CHEMBL1122946, “Folate antagonists. 21. Synthesis and antimalarial properties of 2,4-diamino-6-(benzylamino)pyrido[3,2-d]pyrimidines” (1985):

Key:
Mus musculus [1] = test: Mean survival time against trophozoite induced Plasmodium berghei in mice minus control was evaluated at a dose 1.25 mg/kg; type: functional
Mus musculus [2] = test: Mean survival time against trophozoite induced Plasmodium berghei in mice minus control was evaluated at a dose 2.5 mg/kg.; type: functional
Mus musculus [3] = test: Mean survival time against trophozoite induced Plasmodium berghei in mice minus control was evaluated at a dose 40 mg/kg; 11 survived out of 15 animals at 60 days postinjection; type: functional, organism-based; design: dose 40 mg/kg
Mus musculus [4] = test: Mean survival time against trophozoite induced Plasmodium berghei in mice minus control was evaluated at a dose 10 mg/kg; type: functional
Mus musculus [5] = test: Mean survival time against trophozoite induced Plasmodium berghei in mice minus control was evaluated at a dose 320 mg/kg; 8 toxic death occurred out f 10 animals on days 2-5 after injection; type: functional, organism-based; design: dose 320 mg/kg
Mus musculus [6] = test: Mean survival time against trophozoite induced Plasmodium berghei in mice minus control was evaluated at a dose 640 mg/kg; 5 toxic death occurred out of 5 animals on days 2-5 after injection; type: functional, organism-based; design: dose 640 mg/kg
Mus musculus [7] = test: Mean survival time against trophozoite induced Plasmodium berghei in mice minus control was evaluated at a dose 20 mg/kg;3 survived out of 15 animals at 60 days postinjection; type: functional, organism-based; design: dose 20 mg/kg
Mus musculus [8] = test: Mean survival time against trophozoite induced Plasmodium berghei in mice minus control was evaluated at a dose 5 mg/kg.; type: functional
Mus musculus [9] = test: Mean survival time against trophozoite induced Plasmodium berghei in mice minus control was evaluated at a dose 80 mg/kg; 4 toxic death occurred out of 10 animals on days 2-5 after injection.; type: functional, organism-based; design: dose 80 mg/kg
Mus musculus [10] = test: Mean survival time against trophozoite induced Plasmodium berghei in mice minus control was evaluated at a dose 160 mg/kg; 8 toxic death occurred out of 10 animals on days 2-5 after injection; type: functional, organism-based; design: dose 160 mg/kg
Mus musculus [11] = test: Mean survival time against trophozoite induced Plasmodium berghei in mice minus control was evaluated at a dose 10 mg/kg.; type: functional
Mus musculus [12] = test: Mean survival time against trophozoite induced Plasmodium berghei in mice minus control was evaluated at a dose 640 mg/kg; 15 toxic death occurred out of 15 animals on days 2-5 after injection; type: functional, organism-based; design: dose 640 mg/kg
Mus musculus [13] = test: Mean survival time against trophozoite induced Plasmodium berghei in mice minus control was evaluated at a dose 320 mg/kg; 10 toxic death occurred out of 10 animals on days 2-5 after injection; type: functional, organism-based; design: dose 320 mg/kg
Mus musculus [14] = test: Mean survival time against trophozoite induced Plasmodium berghei in mice minus control was evaluated at a dose 20 mg/kg; type: functional
Mus musculus [15] = test: Mean survival time against trophozoite induced Plasmodium berghei in mice minus control was evaluated at a dose 160 mg/kg; 14 toxic death occurred out of 20 animals on days 2-5 after injection; type: functional, organism-based; design: dose 160 mg/kg
Mus musculus [16] = test: Mean survival time against trophozoite induced Plasmodium berghei in mice minus control was evaluated at a dose 1.25 mg/kg.; type: functional
Mus musculus [17] = test: Mean survival time against trophozoite induced Plasmodium berghei in mice minus control was evaluated at a dose 80 mg/kg; 5 survived out of 5 animals at 60 days postinjection.; type: functional, organism-based; design: dose 80 mg/kg
Mus musculus [18] = test: Mean survival time against trophozoite induced Plasmodium berghei in mice minus control was evaluated at a dose 40 mg/kg; type: functional

SMILES | Delta MST (Mus musculus [1]) [days] | Delta MST (Mus musculus [2]) [days] | Delta MST (Mus musculus [3]) | Delta MST (Mus musculus [4]) [days] | Delta MST (Mus musculus [5]) | Delta MST (Mus musculus [6]) | Delta MST (Mus musculus [7]) | Delta MST (Mus musculus [8]) [days] | Delta MST (Mus musculus [9]) | Delta MST (Mus musculus [10]) | Delta MST (Mus musculus [11]) [days] | Delta MST (Mus musculus [12]) | Delta MST (Mus musculus [13]) | Delta MST (Mus musculus [14]) [days] | Delta MST (Mus musculus [15]) | Delta MST (Mus musculus [16]) [days] | Delta MST (Mus musculus [17]) | Delta MST (Mus musculus [18]) [days]
CC#N.CC(C)N(Cc1ccc(Cl)cc1)c1ccc2nc(N)nc(N)c2n1 | 3.5 | 6.5 | Survivals 11/15 | 11.5 | Toxic Deaths 8/10 | Toxic Deaths 5/5 | Survivals 3/15 | 8.5 | Toxic Deaths 4/10 | Toxic Deaths 8/10 | – | – | – | – | – | – | – | –
CCCN(Cc1ccc(Cl)cc1)c1ccc2nc(N)nc(N)c2n1 | – | 8.1 | – | – | – | – | – | 8.9 | – | – | 10.3 | Toxic Deaths 15/15 | Toxic Deaths 10/10 | 18 | Toxic Deaths 14/20 | 6.9 | Survivals 5/5 | 21.3
